What all share (assay): fluorescence titration
In experiment [1] the test system is G4 (DNA, G4) TTTTGGGGTTTT
As to conditions: K+ 10 mM, Mg2+ 1 mM; 50 mM Tris-borate pH 8.3 (TB), 25 °C; 1:1 model.

Experiment [2] has as its system G4T4G4 (DNA, G4) GGGGTTTTGGGG
As to conditions: K+ 5 mM, Li+ 95 mM; 10 mM lithium cacodylate pH 7.2 (5K), 25 °C; 1:1 model.

Experiment [3] concerns G8 (DNA, G4) TTTTGGGGGGGGTTTT
To be noted: K+ 10 mM, Mg2+ 1 mM; 50 mM Tris-borate pH 8.3 (TB), 25 °C; 1:1 model.

Consider one compound from paper PMC4163640 (2014).

As to `CCc1c(C)c2cc3nc(cc4nc(cc5c(CC)c(C)c(cc1[nH]2)n5C)C(C)=C4CCC(=O)O)C(CCC(=O)O)=C3C`, the Ka result in experiment [1] is listed as “(1.4 ± 0.2) × 10^6 L·mol^-1”; in experiment [2] it was “(1.26 ± 0.07) × 10^7 L·mol^-1”; in experiment [3], “(1.7 ± 0.2) × 10^6 L·mol^-1”.
